Among the data in patent publication US8071768B2, “Alkylquinoline and alkylquinazoline kinase modulators” (Janssen Pharmaceutica, N.V., priority 2005, dated 2011) are IC50 values, retold here.

The target of this assay is T1, TrkB (Homo sapiens, UniProt Q16620).
T1 construct: purchased Upstate 14-507M
The assay can be described thus: Trk B Fluorescence Polarization Kinase Assay. The conditions noted are these: uncertainty ±10%. It is filed as biochemical. How it is done:
Trk B Fluorescence Polarization Kinase Assay (TrkB IC50 Data)
The compounds of the present invention are also specific inhibitors of TrkB. Selection of preferred compounds of Formula I for use as TrkB inhibitors was performed in the following manner. The TrkB assay utilized the fluorescein-labeled phosphopeptide and the anti-phosphotyrosine antibody included in the Panvera Phospho-Tyrosine Kinase Kit (Green) supplied by Invitrogen. When TrkB phosphorylated poly Glu4Tyr, the fluorescein-labeled phosphopeptide was displaced from the anti-phosphotyrosine antibody by the phosphorylated poly Glu4Tyr, thus decreasing the FP value. The TrkB kinase reaction was incubated at room temperature for 30 minutes under the following conditions: 50 nM TrkB (Upstate, catalog # 14-507M), 20 ug/mL poly Glu4Tyr, 150 uM ATP, 5 mM MgCl2, 1% compound in DMSO. The kinase reaction was stopped with the addition of EDTA. The fluorescein-labeled phosphopeptide and the anti-phosphotyrosine antibody were added and incubated for 30 minutes at room temperature. Data points were an average of triplicate samples. Inhibition and IC50 data analysis were done with GraphPad Prism using a non-linear regression fit with a multiparamater, sigmoidal dose-response (variable slope) equation.
Background: Polarisation of emitted light reports the rotation of a fluorescent probe.

T1 sequence (Q16620 32-822): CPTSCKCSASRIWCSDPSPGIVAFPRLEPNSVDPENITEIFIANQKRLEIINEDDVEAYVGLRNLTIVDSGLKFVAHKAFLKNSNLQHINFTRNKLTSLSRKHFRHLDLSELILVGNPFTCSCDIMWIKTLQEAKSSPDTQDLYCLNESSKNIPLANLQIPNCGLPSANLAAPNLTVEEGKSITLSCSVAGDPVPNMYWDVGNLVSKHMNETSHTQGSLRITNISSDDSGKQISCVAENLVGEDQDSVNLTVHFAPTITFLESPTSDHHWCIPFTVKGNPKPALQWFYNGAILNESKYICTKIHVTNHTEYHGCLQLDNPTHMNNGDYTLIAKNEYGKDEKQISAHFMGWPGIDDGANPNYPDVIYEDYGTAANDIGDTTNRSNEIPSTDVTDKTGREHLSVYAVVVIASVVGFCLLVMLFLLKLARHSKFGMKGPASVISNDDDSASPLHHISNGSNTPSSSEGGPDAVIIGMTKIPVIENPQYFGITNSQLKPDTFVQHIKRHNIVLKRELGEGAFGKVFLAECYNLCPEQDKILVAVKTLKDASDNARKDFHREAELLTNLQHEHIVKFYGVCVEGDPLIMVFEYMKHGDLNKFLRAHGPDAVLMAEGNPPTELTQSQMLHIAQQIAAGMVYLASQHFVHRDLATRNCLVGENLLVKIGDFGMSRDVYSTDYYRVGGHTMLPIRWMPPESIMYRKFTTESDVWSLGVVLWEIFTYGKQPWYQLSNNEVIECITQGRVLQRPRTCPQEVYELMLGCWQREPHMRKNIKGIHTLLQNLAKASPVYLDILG

`COc1cc2ncnc(C3CCN(C(=O)Nc4ccc(-n5ccnc5)cc4)CC3)c2cc1OC` [Compound 3, 4-(6,7-Dimethoxy-quinazolin-4-yl)-piperidine-1-carboxylic acid (4-imidazol-1-yl-phenyl)-amide] came in with an IC50 above 42 µM.
As for `CN(C)[C@@H]1CCN(c2ccc3c(C4CCN(C(=O)Nc5ccc(N6CCOCC6)cc5)CC4)ncnc3c2)C1` [Compound 150, (R)-4-[7-(3-Dimethylamino-pyrrolidin-1-yl)-quinazolin-4-yl]-piperidine-1-carboxylic acid (4-morpholin-4-yl-phenyl)-amide], the IC50 was above 42 µM.
The molecule `CS(=O)(=O)OCCCOc1ccc2c(C3CCN(C(=O)Nc4ccc(N5CCOCC5)cc4)CC3)ncnc2c1` [Compound 122, Methanesulfonic acid 3-{4-[1-(4-morpholin-4-yl-phenylcarbamoyl)-piperidin-4-yl]-quinazolin-7-yloxy}-propyl ester] returned an IC50 of 18.9 µM.
Consider `CN1CCC(COc2ccc3c(C4CCN(C(=O)Nc5ccc(N6CCOCC6)nc5)CC4)ncnc3c2)CC1` [Compound 108, 4-[7-(1-Methyl-piperidin-4-ylmethoxy)-quinazolin-4-yl]-piperidine-1-carboxylic acid (6-morpholin-4-yl-pyridin-3-yl)-amide], for which the half-maximal inhibitory concentration (IC50) stood at 5.4 µM.
For `COc1ccc(NC(=O)N2CCC(c3ncnc4cc(OC)c(OC)cc34)CC2)cc1` [Compound 41, 4-(6,7-Dimethoxy-quinazolin-4-yl)-piperidine-1-carboxylic acid (4-methoxy-phenyl)-amide], the IC50 worked out at 11.7 µM.
For `CC(C)Oc1ccc(NC(=O)N2CCC(c3ncnc4ccccc34)CC2)cc1` [Compound 8, 4-Quinazolin-4-yl-piperidine-1-carboxylic acid (4-isopropoxy-phenyl)-amide] the value was 2.4 µM; for `O=C1CCCN1CCOc1ccc2c(C3CCN(C(=O)Nc4ccc(N5CCOCC5)cc4)CC3)ncnc2c1` [Compound 85, 4-{7-[2-(2-Oxo-pyrrolidin-1-yl)-ethoxy]-quinazolin-4-yl}-piperidine-1-carboxylic acid (4-morpholin-4-yl-phenyl)-amide], above 20 µM.
The molecule `COc1ccc2c(C3CCN(C(=O)Nc4ccc(OC(C)C)cc4)CC3)ncnc2c1` [Compound 31, 4-(7-Methoxy-quinazolin-4-yl)-piperidine-1-carboxylic acid (4-isopropoxy-phenyl)-amide] had an IC50 of 0.4 µM.
For the molecule `CN1CCN(CCOc2ccc3c(C4CCN(C(=O)Nc5ccc(N6CCOCC6)cc5)CC4)ncnc3c2)CC1` [Compound 156, 4-{7-[2-(4-Methyl-piperazin-1-yl)-ethoxy]-quinazolin-4-yl}-piperidine-1-carboxylic acid (4-morpholin-4-yl-phenyl)-amide], the IC50 was above 21 µM.
In the case of `O=C(Nc1ccc(N2CCOCC2)cc1)N1CCC(c2ncnc3cc(OCCC4CCCCN4)ccc23)CC1` (stereo not shown) [Compound 98, 4-[7-(2-Piperidin-2-yl-ethoxy)-quinazolin-4-yl]-piperidine-1-carboxylic acid (4-morpholin-4-yl-phenyl)-amide], the IC50 is above 20 µM.
For the molecule `COc1cc2ncnc(C3CCN(C(=O)Nc4ccc(C)cc4)CC3)c2cc1OC` [Compound 48, 4-(6,7-Dimethoxy-quinazolin-4-yl)-piperidine-1-carboxylic acid p-tolylamide], inhibition was half-maximal at 6.6 µM (IC50).
Turning to `CC(C)Oc1ccc(NC(=O)N2CCC(c3ncnc4cc(OCCN5CCCCC5)ccc34)CC2)cc1` [Compound 34, 4-(7-(2-Piperindin-1-yl-ethoxy)-quinazolin-4-yl)-piperidine-1-carboxylic acid (4-isopropoxy-phenyl)-amide], the midpoint of inhibition, the IC50, lay at 2.8 µM.
Turning to `CC(C)Oc1ccc(NC(=O)N2CCC(c3ncnc4ccc(C#CCN5CCCCC5)cc34)CC2)cc1` [Compound 14, 4-[6-(3-Piperidin-1-yl-prop-1-ynyl)-quinazolin-4-yl]-piperidine-1-carboxylic acid (4-isopropoxy-phenyl)-amide], the IC50 is 0.3 µM.
In turn, `COc1cc2ncnc(C3CCN(C(=O)Nc4ccc(C(F)(F)F)cc4)CC3)c2cc1OC` [Compound 46, 4-(6,7-Dimethoxy-quinazolin-4-yl)-piperidine-1-carboxylic acid (4-trifluoromethyl-phenyl)-amide] showed an IC50 of 18.3 µM.
Molecule `O=C(NCCCOc1ccc2c(C3CCN(C(=O)Nc4ccc(N5CCOCC5)nc4)CC3)ncnc2c1)N1CCOCC1` [Compound 113, Morpholine-4-carboxylic acid (3-{4-[1-(6-morpholin-4-yl-pyridin-3-ylcarbamoyl)-piperidin-4-yl]-quinazolin-7-yloxy}-propyl)-amide] displayed a half-inhibitory concentration (IC50) of 11.5 µM.
The result for `CCN(CC)CCCOc1ccc2c(C3CCN(C(=O)Nc4ccc(OC(C)C)cc4)CC3)ncnc2c1` [Compound 36, 4-[7-(3-Diethylamino-propoxy)-quinazolin-4-yl)-piperidine-1-carboxylic acid (4-isopropoxy-phenyl)-amide] reads 0.6 µM; that for `O=C(Nc1ccc(N2CCOCC2)cc1)N1CCC(c2ncnc3cc(N4CCN(CCO)CC4)ccc23)CC1` [Compound 137, 4-{7-[4-(2-Hydroxy-ethyl)-piperazin-1-yl]-quinazolin-4-yl}-piperidine-1-carboxylic acid (4-morpholin-4-yl-phenyl)-amide], above 42 µM; that for `O=C(Nc1ccc(N2CCOCC2)cc1)N1CCC(c2ncnc3cc(N4CCC[C@H]4CO)ccc23)CC1` [Compound 139, (S)-4-[7-(2-Hydroxymethyl-pyrrolidin-1-yl)-quinazolin-4-yl]-piperidine-1-carboxylic acid (4-morpholin-4-yl-phenyl)-amide], 33.8 µM.
Take `COc1cc2ncnc(C3CCN(C(=O)Nc4ccc(C5CCNCC5)cc4)CC3)c2cc1OC` [Compound 64, 4-(6,7-Dimethoxy-quinazolin-4-yl)-piperidine-1-carboxylic acid (4-piperidin-4-yl-phenyl)-amide]: inhibition was half-maximal at 37.8 µM (IC50).
On to `COc1cc2ncnc(C3CCN(C(=O)Nc4ccc(N(C)C)cc4)CC3)c2cc1OC` [Compound 26, 4-(6,7-Dimethoxy-quinazolin-4-yl)-piperidine-1-carboxylic acid (4-dimethylamino-phenyl)-amide], for which the IC50 is 9.4 µM.
Molecule `CN1CCC(COc2ccc3c(C4CCN(C(=O)Nc5ccc(OC6CCC6)nc5)CC4)ncnc3c2)CC1` [Compound 107, 4-[7-(1-Methyl-piperidin-4-ylmethoxy)-quinazolin-4-yl]-piperidine-1-carboxylic acid (6-cyclobutoxy-pyridin-3-yl)-amide] showed an IC50 of 0.2 µM.
Regarding `CN1CCC[C@H]1COc1ccc2c(C3CCN(C(=O)Nc4ccc(N5CCCC5)cc4)CC3)ncnc2c1` [Compound 151, (S)-4-[7-(1-Methyl-pyrrolidin-2-ylmethoxy)-quinazolin-4-yl]-piperidine-1-carboxylic acid (4-pyrrolidin-1-yl-phenyl)-amide], the IC50 was above 42 µM.
For `CC(C)Oc1ccc(NC(=O)N2CCC(c3ncnc4cc(OCCCN5CCOCC5)ccc34)CC2)cc1` [Compound 38] the value was 0.1 µM; for `CC(=O)N1CCC(COc2ccc3c(C4CCN(C(=O)Nc5ccc(N6CCCC6)cc5)CC4)ncnc3c2)CC1` [Compound 163, 4-[7-(1-Acetyl-piperidin-4-ylmethoxy)-quinazolin-4-yl]-piperidine-1-carboxylic acid (4-pyrrolidin-1-yl-phenyl)-amide], 4.12 µM.
Consider `O=C(Nc1ccc(N2CCOCC2)cc1)N1CCC(c2ncnc3cc(N4CCOCC4)ccc23)CC1` [Compound 145, 4-(7-Morpholin-4-yl-quinazolin-4-yl)-piperidine-1-carboxylic acid (4-morpholin-4-yl-phenyl)-amide], for which half-maximal inhibition (IC50) was put at 21.1 µM.
With `CCN1CCN(CCCOc2ccc3c(C4CCN(C(=O)Nc5ccc(N6CCOCC6)cc5)CC4)ncnc3c2)CC1` [Compound 115, 4-{7-[3-(4-Ethyl-piperazin-1-yl)-propoxy]-quinazolin-4-yl}-piperidine-1-carboxylic acid (4-morpholin-4-yl-phenyl)-amide], the IC50 is above 20 µM.
In turn, `O=C(Nc1ccc(N2CCOCC2)cc1)N1CCC(c2ncnc3cc(OCCCN4CCOCC4)ccc23)CC1` [Compound 133, 4-[7-(3-Morpholin-4-yl-propoxy)-quinazolin-4-yl]-piperidine-1-carboxylic acid (4-morpholin-4-yl-phenyl)-amide] came in with an IC50 above 42 µM.
Consider `CC(=O)N1CCC[C@H]1COc1ccc2c(C3CCN(C(=O)Nc4ccc(N5CCCC5)cc4)CC3)ncnc2c1` [Compound 162, (S)-4-[7-(1-Acetyl-pyrrolidin-2-ylmethoxy)-quinazolin-4-yl]-piperidine-1-carboxylic acid (4-pyrrolidin-1-yl-phenyl)-amide], for which the IC50 is above 21 µM.
`CC(C)Oc1ccc(NC(=O)N2CCC(c3ncnc4ccc(I)cc34)CC2)cc1` [Compound 11, 4-(6-Iodo-quinazolin-4-yl)-piperidine-1-carboxylic acid (4-isopropoxy-phenyl)-amide] had an IC50 of 0.2 µM.
The result for `CCCCc1ccc(NC(=O)N2CCC(c3ncnc4cc(OC)c(OC)cc34)CC2)cc1` [Compound 43, 4-(6,7-Dimethoxy-quinazolin-4-yl)-piperidine-1-carboxylic acid (4-butyl-phenyl)-amide] reads 0.8 µM; that for `CN1CCN(c2ccc3c(C4CCN(C(=O)Nc5ccc(N6CCCC6)cc5)CC4)ncnc3c2)CC1` [Compound 159, 4-[7-(4-Methyl-piperazin-1-yl)-quinazolin-4-yl]-piperidine-1-carboxylic acid (4-pyrrolidin-1-yl-phenyl)-amide], 7.86 µM.

By IC50 is commonly meant the midpoint of a concentration-inhibition curve.
